We go through 2 compounds from patent US11793879B2, “Monolithic composition for dual-rate release with high drug loading” (priority 2016, dated 2023).

The conditions of this series: for immediate release / immediate release (amount): Example 5 monolithic tablet (900 mg acetaminophen + 100 mg caffeine), after 30 minutes in SGF. On the procedure:
The dissolution kinetic assay is followed with a Distek™ apparatus according to the paddle method from USP-32, with slight modification. Indeed, the monolithic tablets are placed in 750 mL of simulated gastric fluid (SGF, pH 1.5) during 30 minutes, at 37° C. Thereafter, a volume of 250 mL of sodium tripolyphosphate 0.20 M is added directly in SGF to neutralize the gastric acidity for pH values of about 6.8-7.0 which constituted the pH of simulated intestinal fluid (SIF).
At different intervals of 30 minutes, an aliquot of 1 mL of dissolution fluid is withdrawn from dissolution media, filtered and properly diluted (approximately 1/50). The absorbency is measured with an UV spectrometer (Lambda-40 Spectrometer, Perkin Elmer) at 247 nm.
The Carboxymethyl starch is prepared according to the process of the present invention. […] For acetaminophen, the absorbency of samples is measured with an UV spectrometer at 247 nm. For caffeine, the dosage is carried out by HPLC according to method described by Hassouna et al. (Hassouna, M. E. M, Issa, Y. M. and Zayed, A. G. 2012. J. Appl. Pharm. Sci., 02, 52-59)

In the case of `CC(=O)Nc1ccc(O)cc1` [Acetaminophen], the immediate release was about 35% and the “immediate release (amount)” value is about 350 mg. The “immediate release of Acetaminophen (amount)” value (Example 4 monolithic tablet (1000 mg acetaminophen), after 45 minutes (30 minutes in SGF and 15 minutes in SIF)) is recorded as about 600 mg. Further, the “immediate release of Acetaminophen” value (Example 4 monolithic tablet (1000 mg acetaminophen, carboxymethyl starch excipient), after 45 minutes (30 minutes in SGF pH 1.5 and 15 minutes in SIF), 37° C., FIG. 2) is listed as about 60%.

In the case of `Cn1c(=O)c2c(ncn2C)n(C)c1=O` [caffeine, Caffeine], the immediate release is about 25% and the “immediate release (amount)” value is about 25 mg.
